AC50, EC50 and CC50 data for 1 molecule are collected here from ChEMBL document CHEMBL1201862, “PubChem BioAssay data set” (2004).

Activity calls are given as the source filed them. Where only a bound is given, the exact number is not on record here.

One assay deals with Keap1/Nrf2 (Homo sapiens, UniProt Q14145). As to the kind of experiment: disruptors of Keap1 binding to Nrf2 peptide – biochemical, fluorescence polarization, cherry-picked samples, dose response (AID 588683). (In general: Fluorescence polarisation rises when a labelled molecule tumbles more slowly, as on binding a larger partner.)
Another assay addresses T1, Streptokinase A (Streptococcus pyogenes serotype M1, UniProt P10520).
T1 sequence (P10520 whole entry): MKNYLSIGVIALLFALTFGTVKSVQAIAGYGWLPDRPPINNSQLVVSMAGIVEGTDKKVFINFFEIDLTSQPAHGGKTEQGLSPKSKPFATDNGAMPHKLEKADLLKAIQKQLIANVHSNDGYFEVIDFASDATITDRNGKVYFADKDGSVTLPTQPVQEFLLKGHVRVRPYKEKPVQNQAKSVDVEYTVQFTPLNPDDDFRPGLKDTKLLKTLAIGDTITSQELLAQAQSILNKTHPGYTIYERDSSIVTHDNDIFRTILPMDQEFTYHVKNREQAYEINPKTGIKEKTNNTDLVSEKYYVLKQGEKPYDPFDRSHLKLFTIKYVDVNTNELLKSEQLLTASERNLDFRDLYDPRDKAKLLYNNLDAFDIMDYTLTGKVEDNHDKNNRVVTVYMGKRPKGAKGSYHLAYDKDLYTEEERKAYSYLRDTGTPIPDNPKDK
The experiment in a line: viability-normalized secreted streptokinase activity reduction – plasminogen activation absorbance, OD405, dose response (AID 1914).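 Note: secreted streptokinase activity via plasminogen activation per viability signal from cell pellet.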 The assay is classed as functional, Streptococcus pyogenes M1 GAS.

The next assay has as its system Streptococcus. As to the kind of experiment: GAS UMAA2166 growth inhibition – luminescence, BacTiterGlo, counter-screen for streptokinase expression inhibitor project, dose response (AID 1915).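 Note: potency for reduction of bacterial viability or growth.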 The assay is classed as functional, organism-based. In general terms: Counterscreens check selectivity or assay interference.
Assay [1] is described as follows: mitochondrial function rescue without frataxin homolog – Friedreich's ataxia, plus single-dose screen, dose response (AID 1465).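 Note: yeast depleted of Yfh1p frataxin homolog grown on glycerol needing respiration; WST-1 tetrazolium dye reduction as measure of cellular dehydrogenase metabolic activity.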 The class given is functional.
Assay [2] concerns Streptococcus sp. 'group A'. As to the kind of experiment: Streptococcus pyogenes SK(-)GAS viability under kanamycin – luminescence, BacTiterGlo, confirmation, counter-screen for streptokinase expression inhibitor project, dose response (AID 1900). The assay is classed as functional, organism-based.
The nature of assay [3]: viability of uninfected HEp-2 cells – cell-based, HTS, cytotoxicity control for RSV inhibitor project, dose response (AID 2410). The class given is functional. The following applies: human respiratory syncytial virus.

Sequence of Keap1/Nrf2 (Q16236 whole entry): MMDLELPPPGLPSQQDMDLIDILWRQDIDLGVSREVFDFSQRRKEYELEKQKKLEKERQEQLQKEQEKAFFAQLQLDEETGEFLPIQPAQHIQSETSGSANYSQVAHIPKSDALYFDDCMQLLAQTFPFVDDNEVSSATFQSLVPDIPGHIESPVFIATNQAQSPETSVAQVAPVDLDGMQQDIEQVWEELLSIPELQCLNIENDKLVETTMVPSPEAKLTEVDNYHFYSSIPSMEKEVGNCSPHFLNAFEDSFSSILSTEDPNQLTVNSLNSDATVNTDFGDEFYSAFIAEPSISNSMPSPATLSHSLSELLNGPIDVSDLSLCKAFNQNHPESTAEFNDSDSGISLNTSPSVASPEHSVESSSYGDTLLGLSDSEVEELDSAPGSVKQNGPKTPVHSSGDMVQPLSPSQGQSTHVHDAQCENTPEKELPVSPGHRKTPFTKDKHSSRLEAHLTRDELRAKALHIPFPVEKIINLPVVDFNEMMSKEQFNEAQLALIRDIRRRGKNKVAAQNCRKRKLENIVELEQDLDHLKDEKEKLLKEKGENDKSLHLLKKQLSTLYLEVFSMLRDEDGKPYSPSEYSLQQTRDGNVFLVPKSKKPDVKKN
Sequence of Keap1/Nrf2 (Q14145 whole entry): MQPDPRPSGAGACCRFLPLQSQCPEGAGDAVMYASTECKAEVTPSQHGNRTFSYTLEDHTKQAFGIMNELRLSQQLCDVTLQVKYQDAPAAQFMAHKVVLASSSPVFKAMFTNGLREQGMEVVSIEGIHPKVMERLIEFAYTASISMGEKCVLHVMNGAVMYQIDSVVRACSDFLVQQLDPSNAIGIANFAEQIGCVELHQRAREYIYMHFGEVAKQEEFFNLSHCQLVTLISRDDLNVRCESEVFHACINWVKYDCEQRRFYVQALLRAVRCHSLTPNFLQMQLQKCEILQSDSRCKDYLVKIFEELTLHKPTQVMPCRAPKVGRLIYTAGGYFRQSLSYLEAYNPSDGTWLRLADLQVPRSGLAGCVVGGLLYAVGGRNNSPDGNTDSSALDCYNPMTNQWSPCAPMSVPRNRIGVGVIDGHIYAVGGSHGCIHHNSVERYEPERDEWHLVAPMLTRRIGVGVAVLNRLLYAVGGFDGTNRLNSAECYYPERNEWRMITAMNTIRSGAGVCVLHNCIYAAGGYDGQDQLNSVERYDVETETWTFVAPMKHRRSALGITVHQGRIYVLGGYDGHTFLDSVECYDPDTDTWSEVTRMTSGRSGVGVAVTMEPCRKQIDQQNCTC

As usually defined, the AC50 is the concentration giving half of the maximal activity seen. Usually EC50 stands for the concentration needed to bring the measured effect to its halfway point. What is called CC50 is the concentration that lowers cell viability or growth by half. On to `O=C1CCCc2oc3c(cc(NS(=O)(=O)c4ccc5c6c(cccc46)C(=O)N5)c4ccccc43)c21`, for which, at Keap1/Nrf2, the half-maximal activity concentration (AC50) is 51.2 µM (active). Besides, the concentration giving a half-maximal response (EC50) was > 150 µM (not active) on Streptokinase A, > 150 µM (not active) in the assay on Streptococcus, > 100 µM (active) in assay [1] and 3.82 µM (active) in assay [2]. Besides, in assay [3], the 50% cytotoxic concentration (CC50) was 25.1 µM (active).
